In ChEMBL document CHEMBL5137037, “Phage Display Selected Cyclic Peptide Inhibitors of Kallikrein-Related Peptidases 5 and 7 and Their In Vivo Delivery to the Skin” (J Med Chem, 2022):
Numbered stars: 1 amine (or outer) side, 2 acyl side, 3 side chain; on linkers, the order of the positions; unused ones are H or OH. Bridge positions count the residues as written; N and C are the ends. Square brackets hold non-standard residues; d marks the D form. Peptide text beside a SMILES is read from it. I, II: the chains in the order shown. * marks the point of attachment. X2 = CN(C)c1ccc2c(c1)[Si](C)(C)C1=CC(=[N+](C)C)C=CC1=C2c1cc(C(=O)*)ccc1C(=O)O; X3 = O=C(C[C@H](CCO)C(=O)[*:2])[C@H](Cc1ccc(O)cc1)N[*:1]; Palmitoyl = CCCCCCCCCCCCCCCC(=O)*; CH2COCH2 = O=C(C[*:1])C[*:2]; hSer = N[C@@H](CCO)C(=O)O; AEEA = NCCOCCOCC(=O)O

Test: Drug uptake in C57BL/6J mouse skin epidermis assessed as half life at 6.4 mg/kg, ip measured after 8 hrs by DAPI staining based fluorescence microscope assay
Format: ADME, organism-based
Conditions: in vivo; call rule not given here

CCCCCCCCCCCCCCCC(=O)NCCCC[C@H](NC(=O)[C@@H](CCO)CC(=O)[C@H](Cc1ccc(O)cc1)NC(=O)[C@H](CCO)NC(=O)COCCOCCNC(=O)c1ccc(C(=O)O)c(C2=C3C=CC(=[N+](C)C)C=C3[Si](C)(C)c3cc(N(C)C)ccc32)c1)C(=O)N[C@@H](CCO)C(=O)N[C@@H](Cc1ccc(O)cc1)C(=O)N[C@@H](CCC(=O)O)C(=O)NCCOCCOCC(=O)NCCCC[C@H](NC(=O)CNC(=O)[C@@H]1CSCC(=O)CSC[C@H](NC(=O)CNC(C)=O)C(=O)N[C@@H]([C@@H](C)O)C(=O)N[C@@H](CCCNC(=N)N)C(=O)N[C@@H](CCC(N)=O)C(=O)N[C@@H](Cc2ccc(O)cc2)C(=O)N2CCC[C@H]2C(=O)N1)C(=O)NCC(N)=O (I: Ac-GCTRQYPCGKG-NH2 / II: {X2-AEEA}-[hSer][X3]K(Palmitoyl)[hSer]YE[AEEA]; linker I:2-I:8 via CH2COCH2; amide I:10-II:C)
Drug uptake: Active
